Assay results published in patent US9480676B2, “Use of PDE4 inhibitors and combinations thereof for the treatment of cystic fibrosis” (Celgene Corporation, priority 2014, dated 2016).
pIC50: −log10 of the molar value. “And” between values parts separate entries of the source, which are not always exact repeats. Equal values may be shown once.

System: PDE4
Experiment: Inhibition of PDE4 (enzyme purified from U937 human monocytic cells)
Assay type: biochemical
Conditions: 1 μM cAMP plus 10 nM [3H]-cAMP, 45 min at 30° C.
Protocol: Phosphodiesterase 4 enzyme was purified from U937 human monocytic cells by gel filtration chromatography, and phosphodiesterase reactions were carried out as previously described. See, e.g., Muller et al., Bioorg. Med. Chem. Lett., 1998, 8(19): 2669-2674. Briefly, reactions were carried out in 96-well deep-well plates in 50 mM Tris HCl pH 7.5, 5 mM MgCl2, 1 μM cyclic adenosine monophosphate (cAMP), plus 10 nM [^3H]-cAMP for 45 min at 30° C. The reactions were terminated by boiling, treated with 1 mg/ml snake venom, and separated using AG-1X8 ion exchange resin (BioRad). Reactions consumed less than 15% of available substrate. […] Compound B inhibited PDE4 with an IC50 of 100 nM.

| SMILES | pIC50 |
| --- | --- |
| CCOc1cc([C@@H](CS(C)(=O)=O)N2C(=O)c3cccc(NC(C)=O)c3C2=O)ccc1OC [Compound A1, (S)—N-(2-(1-(3-ethoxy-4-methoxyphenyl)-2-(methylsulfonyl)ethyl)-1,3-dioxoisoindolin-4-yl)acetamide] | 7.13 and ~7.13 |
| CCOc1cc([C@@H](CS(C)(=O)=O)N2Cc3cccc(NC(=O)C4CC4)c3C2=O)ccc1OC [Compound B, (S)—N-(2-(1-(3-ethoxy-4-methoxyphenyl)-2-(methylsulfonyl)ethyl)-3-oxoisoindolin-4-yl)cyclopropanecarboxamide] | 7.00 and ~7.00 |
